Read-outs that look alike come from different tables or passages of the source.

Results on 21 compounds are retold here after US20230293488A1, “COMPOSITIONS AND METHODS OF USE OF ANTIBACTERIAL DRUG COMBINATIONS” (priority 2015, published 2023).

The test system of assay [1] is MRSA N315. The assay is described as follows: MIC assay and FICI synergy determination (checkerboard). Format: cell-based, Staphylococcus aureus. Particulars: for MIC: Staphylococcus aureus, MRSA, read-out: MIC in MRSA N315. Here is the method:
Microbiological Studies: MRSA N315 was a gift from Dr. Steven Gill, University of Rochester, Rochester, NY, USA. S. aureus ATCC 29213 was acquired from the American Type Culture Collection. De-identified clinical MRSA isolates were selected at random from the clinical isolate strain bank at Barnes-Jewish Hospital, St. Louis, MO, USA. Minimal inhibitory concentration (MIC) assays for inhibition of growth were performed following the recommendations of the Clinical and Laboratory Standards Institute (CLSI)^43. Briefly, 23 antibacterial compounds (Supplemental Table 1) were selected based on coverage of all major drug classes, including three compounds not classified as antibiotics for human use, but with known antibacterial properties. Compounds were dissolved in dimethyl sulfoxide (DMSO) to a stock concentration of 50 mg/ml. Exceptions: Sulfometuron at 20 mg/ml in DMSO; Tobramycin, D-cycloserine, and colistin at 50 mg/ml in H2O and filtered at 2 μm. The 23 compounds were formulated into all 253 possible unique pairwise combinations at fixed ratios and at 100× concentrations in solvent. To increase the range of concentrations assayed for possible synergistic or antagonistic drug interactions (>2,000-fold), the drug stocks were arrayed into threefold dilution series down eight rows in 96-well Costar master drug plates, using a BioMek FX robotic liquid handler (Beckman Coulter, Inc.). Drugs were then mixed 1:100 into 96-well plates containing 200 μl/well of cation-adjusted Mueller-Hinton broth (CAMHB). All drug susceptibility assay wells were inoculated with ˜1 μl of mid-log phase bacterial culture at 0.5 McFarland standard (˜2×10^8 CFU/ml) and grown at 37° C. for 24 h. Endpoint growth at 37° C. after 24 h was determined by optical density at 600 nm ≥0.1 using a Synergy H1 reader (BioTek, Inc.).
Synergy of antibiotic combinations was determined using the fractional inhibitory concentration index (FICI) method ^57,58. By this method, the MIC of the antibiotic compound in combination is divided by the MIC of the compound alone, yielding the fractional contribution of each drug component in the combination. Quotients for all in a combination are summed and drug interactions scored using the formula: FICI=(MIC Acomb A B C)/MICagent A+(MIC Bcomb A B C)/MICagent B+(MIC Ccomb A B C)/MICagentC Select pairwise combinations against MRSA were then combined with each of the 21 remaining single drugs to make triple combinations, formulated and tested in identical fashion to the double combinations. Synergy of combinations was confirmed via triplicate measurements of drug conditions at the MIC. Based on its high synergy against MRSA N315 in the sparse screening, ME/PI/TZ and its constituents were selected for further characterization. Final susceptibility testing of ME/PI/TZ and its components was performed using twofold dilution from 128 to 2 μg/ml for each component

The test system of assay [2] is MRSA N315. The assay is described as follows: Adaptation and cross-resistance assays (11-day passage). Conditions: MRSA N315 after prior exposure/adaptation to meropenem. Format: cell-based, Staphylococcus aureus. The procedure: Adaptation and Cross-resistance Assays: 414 MRSA N315 was grown in 150 μl/well of CAMHB with constant shaking at 37° C. and passaged over 11 days in identical 96-well plates containing replicate threefold dilutions of ME/PI/TZ, ME/PI, ME/TZ, PI/TZ, ME, PI, and TZ. Top concentrations of drug combinations were 33.3 μg/ml for each component, while top concentrations for single drugs was 100 μg/ml. To test for cell viability, at the end of the assay on day 11, all wells from the plate were pinned with a sterile 96-pin replicator and transferred to CAMHB only. After passage, plates were filled 1:1 with 30% CAMHB/glycerol and frozen at −80° C. for later analysis.
Growth rate of isolates over passages in each condition was determined by linear best-fit of logarithm-converted exponential growth phase. […] Adapted isolates were retrospectively chosen from each combination or single compound in wells showing an increase in MIC or growth rate, frozen isolates were streaked out on agar plates to obtain single colonies, re-grown in broth conditions identical to those in which they grew originally, and then re-inoculated in sterile 96-well plates identical to the original 11-day 431 plates.

In assay [3] the test system is MRSA N315. The assay is described as follows: Neutropenic mouse peritonitis model of MRSA infection. It is filed as in vivo, mice. The source says:
In vivo mouse model of MRSA infection: Animals. Outbred ICR female mice (6-8 weeks old, 17-25 g body weight; Harlan Laboratories, Inc., Indianapolis, IN, USA) were used. Mice were given Teklad 2019 Extruded Rodent Diet (Harlan Laboratories, Inc., Indianapolis, IN, USA) and water ad libitum. Mice were maintained in polycarbonate shoebox cages containing corncob (The Andersons, Inc., Maumee, OH, USA) and Alpha-dri (Shepherd Specialty Papers, Inc., Richland, MI, USA) bedding under 12-h light/12-h dark cycle at 22±1° C. All procedures involving animals were approved by the University of Notre Dame Institutional Animal Care and Use Committee.
Neutropenic mouse peritonitis model of MRSA infection. Doses of cyclophosphamide (100 μl of 50 mg/ml in 0.9% saline corresponding to 200 mg/kg; Alfa Aesar, Ward Hill, MA, USA) were given intraperitoneally (IP) at 4 days and 1 day prior to infection. The S. strain N315 was streaked onto Brain-Heart Infusion (BHI; Becton Dickson and Company, Sparks, MD, USA) agar and grown overnight at 36° C. The MRSA N315 bacterial inoculum was adjusted to approximately 1×10^8 CFU/ml (corresponding to OD540=0.5), then diluted to give 2×10^7CFU/ml. A 10% porcine mucin (Sigma-Aldrich, St. Louis, MO, USA) suspension was prepared and adjusted to pH 7. Immediately prior to infection, the bacterial inocula were diluted 1:1 with 10% mucin to a final concentration of 1×10^7CFU/ml in 5% mucin. The mice were then infected IP with 0.5 ml of this inoculum. In vivo dosing of compounds in mice was compared with mean or range peak human plasma concentrations of studied β-lactams^44,46,47,62,63.
Antibiotic preparation. Meropenem was obtained from AK Scientific, Inc. (Union City, CA, USA), piperacillin and tazobactam were obtained from Sigma-Aldrich Co. (St. Louis, MO, USA). Linezolid (CAS 165800-03-3) was obtained from AmplaChem (Carmel, IN, USA). Antibiotics were dissolved at a concentration of 16.67 mg/ml in 30% DMSO/30% propylene glycol/40% water. Linezolid was used as positive control and was prepared at 7.5 mg/ml. Vehicle (30% DMSO/30% propylene glycol/40% water) was included as negative control. The dosing formulations were sterilized by passing through 0.2 μm filter prior to injection.
Bacterial isolation from blood. Blood samples were checked for bacterial growth by plating and liquid culture. Whole blood (100 μl, three samples per group) was spread onto Brain-Heart Infusion (BHI) agar plates and incubated at 36° C. overnight. Colonies were counted and three colonies were selected, grown overnight in liquid BHI culture at 36° C., then mixed 1:1 with 30% LB-glycerol and stored at −80° C. The remaining three blood samples of each group (50 μl) was added to 5 ml BHI broth and incubated overnight at 36° C. When growth was noted, cultures were mixed 1:1 with 30% LB-glycerol and stored at −80° C.
Statistical Analyses: Data for minimal inhibitory concentrations (MICs) are derived from triplicate measurements. Adaptation data are taken from two replicate experiments for each drug combination condition. Data for qRT-PCR expression profiling are derived from three replicate experiments taken from three biological replicates each, with standard error of measurement calculated. Mice were treated in groups of six, and growth determination of bacteria determined via plate and broth culture in triplicate. Fisher's Exact test with Bonferroni correction was used for 8 independent tests (comparing each treatment to 610 vehicle).

As usually defined, the MIC is the least concentration at which growth counts as inhibited. As for `CCN(CC)C(=S)SSC(=S)N(CC)CC` [Disulfiram], the MIC in assay [1] came to 11.1 µg/mL.

For the compound `CN(C)c1cc(NC(=O)CNC(C)(C)C)c(O)c2c1C[C@H]1C[C@H]3[C@H](N(C)C)C(O)=C(C(N)=O)C(=O)[C@@]3(O)C(O)=C1C2=O` [Tigecycline], the MIC in assay [1] is 0.4 µg/mL.

In the case of `CC1(C)S[C@@H]2[C@H](NC(=O)[C@H](N)c3ccc(O)cc3)C(=O)N2[C@H]1C(=O)O` [amoxicillin], the “collateral effect on susceptibility” value in assay [2] is reported as “sensitizing”.

Turning to Colistin, in assay [1] (single compounds), the “MIC in MRSA N315” value was 500 µg/mL.

For the compound `Cc1ccc(C)c(OCCCC(C)(C)C(=O)O)c1` [Gemfibrozil], the MIC in assay [1] (single compounds) is more than 200 µg/mL.

Turning to `CCC[C@@H]1C[C@@H](C(=O)N[C@@H]([C@H]2O[C@H](SC)[C@H](O)[C@@H](O)[C@H]2O)[C@H](C)Cl)N(C)C1` [Clindamycin], in assay [1] (single compounds), the MIC was more than 500 µg/mL.

With `C[C@H]1COc2c(N3CCN(C)CC3)c(F)cc3c(=O)c(C(=O)O)cn1c23` [Levofloxacin], in assay [1] (single compounds), the MIC was 0.4 µg/mL.

For the compound `C/C(=C\C(=O)OCCCCCCCCC(=O)O)C[C@@H]1OC[C@H](C[C@@H]2O[C@H]2[C@@H](C)[C@H](C)O)[C@@H](O)[C@H]1O` [Mupirocin], the minimum inhibitory concentration (MIC) in assay [1] (single compounds) is 0.4 µg/mL.

In the case of `CC(=O)NC[C@H]1CN(c2ccc(N3CCOCC3)c(F)c2)C(=O)O1` [Linezolid], in assay [3] (30 mg/kg), the “bacteria in blood taken at 11 h post-infection” value is “zero plated colonies and no growth in liquid cultures”. For the same compound, the “Result (Alive/Dead)” value in assay [3] (30 mg/kg every 8 hrs SC, 6 doses, one line per mouse) is “Alive”. For the same compound, the “Result (survivors per group)” value in assay [3] (30 mg/kg every 8 hrs SC, 6 doses, six days post-infection) is reported as 6/6. In addition, the “survival for six days post-infection” value in assay [3] (30 mg/kg, n=6/group) is “All mice”. Further, the “p versus vehicle (Fisher's exact test)” value in assay [3] (survival, n=6/group) stood at 0.02. The minimal inhibitory concentration (MIC) in assay [1] (single compounds) amounted to 3.7 µg/mL.

For `NC[C@H]1O[C@H](O[C@H]2[C@H](O)[C@@H](O[C@H]3O[C@H](CO)[C@@H](O)[C@H](N)[C@H]3O)[C@H](N)C[C@@H]2N)[C@H](N)C[C@@H]1O` [Tobramycin], in assay [1] (single compounds), the MIC is more than 500 µg/mL.

As to `N[C@@H]1CONC1=O` [D-Cycloserine], in assay [1] (single compounds), the “MIC in MRSA N315” value was 56 µg/mL.

Consider `CC[C@H]1OC(=O)[C@H](C)[C@@H](O[C@H]2C[C@@](C)(OC)[C@@H](O)[C@H](C)O2)[C@H](C)[C@@H](O[C@@H]2O[C@H](C)C[C@H](N(C)C)[C@H]2O)[C@](C)(O)C[C@@H](C)CN(C)[C@H](C)[C@@H](O)[C@]1(C)O` [Azithromycin], for which, in assay [1] (single compounds), the MIC was more than 200 µg/mL.

As to `Cc1cc(NS(=O)(=O)c2ccc(N)cc2)no1` [Sulfamethoxazole], the MIC in assay [1] (single compounds) came to 100 µg/mL.

Turning to `O=C(N[C@H](CO)[C@H](O)c1ccc([N+](=O)[O-])cc1)C(Cl)Cl` [Chloramphenicol], the MIC in assay [1] (single compounds) was 11.1 µg/mL.

For Bleomycin, the “MIC in MRSA N315” value in assay [1] (single compounds) is more than 500 µg/mL.

For the compound `CO[C@H]1/C=C/O[C@@]2(C)Oc3c(C)c(O)c4c(O)c(c(/C=N/N5CCN(C)CC5)c(O)c4c3C2=O)NC(=O)/C(C)=C\C=C\[C@H](C)[C@H](O)[C@@H](C)[C@@H](O)[C@@H](C)[C@H](OC(C)=O)[C@@H]1C` [Rifampin], the minimum inhibitory concentration (MIC) in assay [1] (single compounds) was 0.4 µg/mL.

Consider `Cc1cc(C)nc(NC(=O)NS(=O)(=O)c2ccccc2C(=O)O)n1` [Sulfometuron], for which the MIC in assay [1] is more than 200 µg/mL.

For `C[C@H]1[C@H](NC(=O)/C(=N\OC(C)(C)C(=O)O)c2csc(N)n2)C(=O)N1S(=O)(=O)O` [Aztreonam], the MIC in assay [1] (single compounds) is more than 500 µg/mL.

As for `CO/N=C(\C(=O)N[C@@H]1C(=O)N2C(C(=O)[O-])=C(C[N+]3(C)CCCC3)CS[C@H]12)c1csc(N)n1` [Cefepime], the MIC in assay [1] (single compounds) came to 100 µg/mL.

As for `COc1cc(Cc2cnc(N)nc2N)cc(OC)c1OC` [Trimethoprim], in assay [1] (single compounds), the minimal inhibitory concentration (MIC) came to 6.2 µg/mL.

For the compound `CN[C@H](CC(C)C)C(=O)N[C@H]1C(=O)N[C@@H](CC(N)=O)C(=O)N[C@H]2C(=O)N[C@H]3C(=O)N[C@H](C(=O)N[C@H](C(=O)O)c4cc(O)cc(O)c4-c4cc3ccc4O)[C@H](O)c3ccc(c(Cl)c3)Oc3cc2cc(c3O[C@@H]2O[C@H](CO)[C@@H](O)[C@H](O)[C@H]2O[C@H]2C[C@](C)(N)[C@H](O)[C@H](C)O2)Oc2ccc(cc2Cl)[C@H]1O` [Vancomycin], in assay [1], the MIC came out at 0.4 µg/mL.
